Experimental data: ChEMBL document CHEMBL4177736, “Monoterpene indole alkaloid azine derivatives as MDR reversal agents” (Bioorg Med Chem, 2018)
Activity calls are given as the source filed them. The calls are words filed in the database; no cut-off is given here.

Experiments:
MRP1 [1] = target: T1, MRP1 (Homo sapiens, UniProt P33527); assay: Inhibition of MRP1 (unknown origin) expressed in HEK293FlpIN cells assessed as reduction in calcein-AM efflux at 20 uM incubated for 30 mins by flow cytometric analysis relative to control; assay type: cell-based; conditions: HEK293FlpIN cells expressing MRP1, probe calcein-AM
NIH3T3 [2] = assay: Cytotoxicity against mouse NIH/3T3 cells assessed as reduction in cell viability at 20 uM after 72 hrs by MTT assay; assay type: cell-based; conditions: nih3t3, 72 h
[3] = Inhibition of P-gp (unknown origin) expressed in mouse NIH/3T3 cells assessed as reduction in rhodamine 123 efflux at 20 uM incubated for 30 mins by flow cytometric analysis relative to control; assay type: cell-based; conditions: Homo sapiens
NIH3T3 [4] = assay: Cytotoxicity against MDR1-expressing mouse NIH/3T3 cells assessed as growth inhibition at 20 uM after 72 hrs by MTT assay; assay type: functional, cell-based
BHK-21 [5] = assay: Cytotoxicity against wild type BHK21 cells assessed as reduction in cell viability at 20 uM after 72 hrs by MTT assay; assay type: cell-based, Mesocricetus auratus; conditions: hamster, bhk-21, 72 h
BHK-21 [6] = assay: Cytotoxicity against MRP1-expressing BHK21 cells assessed as growth inhibition at 20 uM after 72 hrs by MTT assay; assay type: functional; conditions: Mesocricetus auratus, BHK-21, 72 h; read-out: GI
BCRP (ABCG2) = target: T2, BCRP (ABCG2) (Homo sapiens, UniProt Q9UNQ0); assay: Inhibition of BCRP (unknown origin) expressed in HEK293 cells assessed as reduction in mitoxantrone efflux at 20 uM incubated for 30 mins by flow cytometric analysis relative to control; assay type: cell-based; conditions: HEK293 cells expressing BCRP, probe mitoxantrone
T2 sequence (Q9UNQ0 whole entry): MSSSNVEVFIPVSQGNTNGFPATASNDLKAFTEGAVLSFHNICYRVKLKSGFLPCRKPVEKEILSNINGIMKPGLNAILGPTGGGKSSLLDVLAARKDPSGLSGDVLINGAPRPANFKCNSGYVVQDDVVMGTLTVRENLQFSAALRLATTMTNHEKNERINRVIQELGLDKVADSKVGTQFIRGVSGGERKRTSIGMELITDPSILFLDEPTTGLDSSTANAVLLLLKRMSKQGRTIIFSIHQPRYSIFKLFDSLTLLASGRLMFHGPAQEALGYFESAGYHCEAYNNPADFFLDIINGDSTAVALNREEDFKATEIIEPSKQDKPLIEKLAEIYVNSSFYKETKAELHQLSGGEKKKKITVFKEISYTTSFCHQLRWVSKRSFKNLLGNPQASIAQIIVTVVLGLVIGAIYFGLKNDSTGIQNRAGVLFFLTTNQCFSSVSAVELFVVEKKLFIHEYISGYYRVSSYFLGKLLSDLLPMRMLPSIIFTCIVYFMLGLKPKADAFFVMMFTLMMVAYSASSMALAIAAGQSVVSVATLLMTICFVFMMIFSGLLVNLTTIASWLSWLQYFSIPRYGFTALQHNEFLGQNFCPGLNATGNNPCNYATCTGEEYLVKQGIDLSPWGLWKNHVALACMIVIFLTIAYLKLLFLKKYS

BHK-21 [7] = assay: Cytotoxicity against MRP1-expressing BHK21 cells assessed as cell death after 72 hrs by MTT assay; assay type: functional, cell-based; conditions: Mesocricetus auratus, BHK-21, 72 h
[8] = target: T3, Multidrug resistance-associated protein 1 (Homo sapiens, UniProt P33527); assay: (§1) Inhibition of MRP1 (unknown origin) expressed in BHK21 cells assessed as GSH efflux at 20 uM incubated for 3 hrs measured every 30 secs for 2 mins by GSH reductase enzyme based assay (reference value: 100%); assay type: cell-based; conditions: 3 h, 20 µM
BHK-21 [9] = assay: Resistance ratio of EC50 for MRP1-expressing BHK21 cells to EC50 for wild type BHK21 cells; assay type: functional, Mesocricetus auratus
[10] = target: T3, Multidrug resistance-associated protein 1; assay: Inhibition of MRP1 (unknown origin) expressed in HEK293FlpIN cells assessed as reduction in calcein-AM efflux incubated for 30 mins by flow cytometric analysis; assay type: cell-based
MRP1 [11] = target: T1, MRP1; assay: as §1; assay type: cell-based; conditions: BHK21 cells expressing MRP1, probe GSH

T3 sequence (P33527 whole entry): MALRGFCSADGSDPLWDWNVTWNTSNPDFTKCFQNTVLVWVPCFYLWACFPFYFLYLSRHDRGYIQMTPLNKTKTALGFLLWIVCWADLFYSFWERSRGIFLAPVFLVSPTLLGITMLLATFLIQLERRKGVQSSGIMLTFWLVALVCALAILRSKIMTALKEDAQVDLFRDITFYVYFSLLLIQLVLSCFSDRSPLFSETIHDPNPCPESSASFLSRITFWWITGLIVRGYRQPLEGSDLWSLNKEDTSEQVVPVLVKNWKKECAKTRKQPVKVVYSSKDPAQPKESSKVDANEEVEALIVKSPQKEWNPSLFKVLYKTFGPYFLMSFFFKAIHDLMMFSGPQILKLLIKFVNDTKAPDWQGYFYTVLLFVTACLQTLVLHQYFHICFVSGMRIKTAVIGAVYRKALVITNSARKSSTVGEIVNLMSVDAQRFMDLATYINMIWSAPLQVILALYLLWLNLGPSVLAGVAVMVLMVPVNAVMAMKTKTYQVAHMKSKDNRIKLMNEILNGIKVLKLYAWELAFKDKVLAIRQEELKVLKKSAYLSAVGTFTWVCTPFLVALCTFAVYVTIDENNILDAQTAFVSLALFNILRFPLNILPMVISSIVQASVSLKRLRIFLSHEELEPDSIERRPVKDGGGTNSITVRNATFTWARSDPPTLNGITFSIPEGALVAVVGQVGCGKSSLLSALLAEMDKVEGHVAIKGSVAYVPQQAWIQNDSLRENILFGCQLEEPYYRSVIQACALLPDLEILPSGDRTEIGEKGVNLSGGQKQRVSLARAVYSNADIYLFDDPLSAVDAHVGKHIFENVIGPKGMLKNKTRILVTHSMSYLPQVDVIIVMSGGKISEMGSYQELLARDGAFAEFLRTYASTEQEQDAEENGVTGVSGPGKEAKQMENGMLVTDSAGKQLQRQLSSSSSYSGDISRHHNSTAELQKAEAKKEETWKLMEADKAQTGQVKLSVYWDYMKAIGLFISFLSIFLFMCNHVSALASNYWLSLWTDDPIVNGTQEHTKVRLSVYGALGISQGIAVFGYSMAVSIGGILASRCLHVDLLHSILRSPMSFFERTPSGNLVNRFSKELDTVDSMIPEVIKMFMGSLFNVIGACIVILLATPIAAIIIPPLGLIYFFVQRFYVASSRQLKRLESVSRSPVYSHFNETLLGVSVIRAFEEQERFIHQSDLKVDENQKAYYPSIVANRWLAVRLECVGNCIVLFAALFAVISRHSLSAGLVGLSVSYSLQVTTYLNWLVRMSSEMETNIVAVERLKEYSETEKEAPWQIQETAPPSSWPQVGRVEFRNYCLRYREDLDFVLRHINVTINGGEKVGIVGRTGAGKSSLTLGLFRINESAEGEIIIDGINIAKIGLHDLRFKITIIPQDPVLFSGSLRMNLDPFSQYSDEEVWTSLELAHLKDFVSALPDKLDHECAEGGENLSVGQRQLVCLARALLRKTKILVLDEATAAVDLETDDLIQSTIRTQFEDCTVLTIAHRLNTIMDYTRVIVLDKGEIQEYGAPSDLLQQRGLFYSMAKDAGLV
T1 sequence (P33527 whole entry): as above

Structure (SMILES) | inhibition at 0.5 h, 20 µM (MRP1 [1]) | inhibition (INH) [8] | IC50 [10] | inhibition (INH) ([10]; human, 0.5 h) | inhibition at 3 h, 20 µM (MRP1 [11]) | Activity (NIH3T3 [2]) | inhibition [3] | growth inhibition (GI) (NIH3T3 [4]) | Activity (BHK-21 [5]) | inhibition of growth at 20 µM (BHK-21 [6]) | inhibition at 0.5 h, 20 µM (BCRP (ABCG2)) | EC50 (BHK-21 [7]) | Ratio EC50 (BHK-21 [9])
CC[C@@H]1CN(C)[C@H]2Cc3c([nH]c4ccccc34)/C(=N/N=C\c3cccc(Br)c3)C[C@H]1[C@H]2C(=O)OC | 12% | Not Active |  |  |  | Non-Toxic | 11.4% | Active | Non-Toxic | > 90% | -2.4% | 16.5 µM | 0.73
CC[C@H]1CN(C)[C@H]2Cc3c([nH]c4ccccc34)/C(=N/N=C\c3ccccc3[N+](=O)[O-])C[C@H]1[C@H]2C(=O)OC | 29.5% |  |  |  |  | Non-Toxic | 57.4% | Active |  |  | 4.5% |  | 
CC[C@@H]1CN(C)[C@H]2Cc3c([nH]c4ccccc34)/C(=N/N=C\c3ccc([N+](=O)[O-])cc3)C[C@H]1[C@H]2C(=O)OC | 23.4% |  |  |  |  | Non-Toxic | 14.7% | Active | Non-Toxic | > 90% | 2.9% |  | 
CC[C@@H]1CN(C)[C@H]2Cc3c([nH]c4ccccc34)/C(=N/N=C\c3cccc(Cl)c3)C[C@H]1[C@H]2C(=O)OC | 10.8% |  |  |  |  | Non-Toxic | 20.2% | Active | Non-Toxic | 90 to 98% | -1.3% |  | 
CC[C@H]1CN(C)[C@H]2Cc3c([nH]c4ccccc34)/C(=N/N=C\c3ccc[nH]3)C[C@H]1[C@H]2C(=O)OC | 56% |  |  |  | 63 to 75% | Non-Toxic | 27.6% | Active | Non-Toxic | > 70% | 13.5% |  | 
CC[C@@H]1CN(C)[C@H]2Cc3c([nH]c4ccccc34)/C(=N/N=C\C3CCCC3)C[C@H]1[C@H]2C(=O)OC | 19.1% |  |  |  |  | Non-Toxic | 2.7% | Active |  |  | -2.3% |  | 

The next lines start with results.

inhibition at 0.5 h, 20 µM (MRP1 [1]) | inhibition (INH) [8] | IC50 [10] | inhibition (INH) ([10]; human, 0.5 h) | inhibition at 3 h, 20 µM (MRP1 [11]) | Structure (SMILES) | Activity (NIH3T3 [2]) | inhibition [3] | growth inhibition (GI) (NIH3T3 [4]) | Activity (BHK-21 [5]) | inhibition of growth at 20 µM (BHK-21 [6]) | inhibition at 0.5 h, 20 µM (BCRP (ABCG2)) | EC50 (BHK-21 [7]) | Ratio EC50 (BHK-21 [9])
14.6% |  |  |  |  | CC[C@@H]1CN(C)[C@H]2Cc3c([nH]c4ccccc34)/C(=N/N=C\c3ccccc3[N+](=O)[O-])C[C@H]1[C@H]2C(=O)OC | Non-Toxic | 42.9% | Active | Non-Toxic | 90 to 98% | -0.1% |  | 
80.7% |  | > 1000 nM | Dose-dependent effect |  | CC[C@H]1CN(C)[C@H]2Cc3c([nH]c4ccccc34)/C(=N/N=C\c3ccc(O)c(OC)c3)C[C@H]1[C@H]2C(=O)OC | Non-Toxic | 38.6% | Active | Non-Toxic | 90 to 98% | 10.5% |  | 
13.6% |  |  |  |  | CC[C@H]1CN(C)[C@H]2Cc3c([nH]c4ccccc34)/C(=N/N=C\c3cccc(Cl)c3)C[C@H]1[C@H]2C(=O)OC | Non-Toxic | 21.4% | Active | Non-Toxic | 90 to 98% | -2.4% |  | 
